Reference: PubChem BioAssay AID256 (DTP/NCI, 2004)
Several values for one entry are separate records, joined by “and”; a condition that tells them apart may be missing. Equal values may be shown once. Toxic doses and inconclusive results are not listed.

Tested on: CD2F1 mice, L1210 leukemia ip, survival T/C
Test: NCI In Vivo Anticancer Drug Screen. Data for tumor model L1210 Leukemia (intraperitoneal) in CD2F1 (CDF1) mice
Settings: higher = longer survival
How it was run: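 Read-out first: treated-group measurement over vehicle-control measurement, expressed as a ratio. Animals bore a transplanted tumor line and were dosed with compound or vehicle.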

[1] = endpoint: mean survival time, dose: 100.0 mg/kg/injection, schedule: Q04DX003 (ip), vehicle: saline with Tween-80
[2] = endpoint: mean survival time, dose: 200.0 mg/kg/injection, schedule: Q04DX003 (ip), vehicle: saline with Tween-80
[3] = endpoint: mean survival time, dose: 400.0 mg/kg/injection, schedule: Q04DX003 (ip), vehicle: saline with Tween-80
[4] = endpoint: mean survival time, dose: 100.0 mg/kg/injection, schedule: Q01DX001 (ip), vehicle: saline with Tween-80
[5] = endpoint: mean survival time, dose: 200.0 mg/kg/injection, schedule: Q01DX001 (ip), vehicle: saline with Tween-80
[6] = endpoint: mean survival time, dose: 400.0 mg/kg/injection, schedule: Q01DX001 (ip), vehicle: saline with Tween-80

## C=Cc1ccc(Oc2ccccc2)cc1
[1]
  T/C: 93 % of control
[2]
  T/C: 97 % of control
[3]
  T/C: 90 % of control

## CN(Cc1cnc2nc(N)nc(N)c2n1)c1ccc(C(=O)NC(CCC(=O)O)C(=O)O)cc1.[W] (centres undefined)
endpoint: median survival time, dose: 11.0 mg/kg/injection, schedule: Q01DX009 (ip), vehicle: water
  T/C: 178 % of control
endpoint: median survival time, dose: 12.0 mg/kg/injection, schedule: Q01DX009 (ip), vehicle: water
  T/C: 202 % of control
endpoint: median survival time, dose: 12.0 mg/kg/injection, schedule: Q01DX009 (other), vehicle: water
  T/C: 202 % of control
endpoint: median survival time, dose: 14.0 mg/kg/injection, schedule: Q01DX009 (ip), vehicle: water
  T/C: 190 % of control
endpoint: median survival time, dose: 14.0 mg/kg/injection, schedule: Q## X009 (ip), vehicle: water
  T/C: 190 % of control
endpoint: median survival time, dose: 21.0 mg/kg/injection, schedule: Q01DX009 (ip), vehicle: water
  T/C: 178 % of control
endpoint: median survival time, dose: 22.0 mg/kg/injection, schedule: Q01DX009 (ip), vehicle: water
  T/C: 190 % of control
endpoint: median survival time, dose: 22.0 mg/kg/injection, schedule: Q01DX009 (other), vehicle: water
  T/C: 190 % of control
endpoint: median survival time, dose: 41.0 mg/kg/injection, schedule: Q01DX009 (ip), vehicle: water
  T/C: 166 % of control
endpoint: median survival time, dose: 42.0 mg/kg/injection, schedule: Q01DX009 (ip), vehicle: water
  T/C: 166 % of control
endpoint: median survival time, dose: 42.0 mg/kg/injection, schedule: Q01DX009 (other), vehicle: water
  T/C: 166 % of control

## O=[N+]([O-])c1ccc(C(O)C(O)c2ccccc2)cc1 (centres undefined)
[4]
  T/C: 96 % of control
[5]
  T/C: 92 % of control
[6]
  T/C: 95 % of control

## CCOC(=O)C(CCC#N)(CCC#N)C(=O)O
endpoint: mean survival time, dose: 100.0 mg/kg/injection, schedule: Q04DX002 (ip), vehicle: saline
  T/C: 98 % of control
endpoint: mean survival time, dose: 200.0 mg/kg/injection, schedule: Q04DX002 (ip), vehicle: saline
  T/C: 111 % of control
endpoint: mean survival time, dose: 400.0 mg/kg/injection, schedule: Q04DX002 (ip), vehicle: saline
  T/C: 117 % of control

## COc1cccc(/C=N/NC(=O)c2ccccc2N2CCCC2)c1O
endpoint: mean survival time, dose: 12.5 mg/kg/injection, schedule: Q01DX009 (ip), vehicle: olive oil, sesame oil, peanut oil
  T/C: 104 % of control
endpoint: mean survival time, dose: 25.0 mg/kg/injection, schedule: Q01DX009 (ip), vehicle: olive oil, sesame oil, peanut oil
  T/C: 96 % of control
endpoint: mean survival time, dose: 50.0 mg/kg/injection, schedule: Q01DX009 (ip), vehicle: olive oil, sesame oil, peanut oil
  T/C: 102 % of control
endpoint: mean survival time, dose: 100.0 mg/kg/injection, schedule: Q01DX009 (ip), vehicle: olive oil, sesame oil, peanut oil
  T/C: 94 % of control
endpoint: mean survival time, dose: 200.0 mg/kg/injection, schedule: Q01DX009 (ip), vehicle: olive oil, sesame oil, peanut oil
  T/C: 96 % of control

## Cc1ccc(Nc2c3ccccc3nc3ccccc23)cc1
endpoint: mean survival time, dose: 37.5 mg/kg/injection, schedule: Q04DX003 (ip), vehicle: saline with Tween-80
  T/C: 101 % of control
endpoint: mean survival time, dose: 40.0 mg/kg/injection, schedule: Q04DX003 (ip), vehicle: other
  T/C: 120 % of control
endpoint: mean survival time, dose: 75.0 mg/kg/injection, schedule: Q04DX003 (ip), vehicle: saline with Tween-80
  T/C: 102 % of control
endpoint: mean survival time, dose: 150.0 mg/kg/injection, schedule: Q04DX003 (ip), vehicle: other
  T/C: 160 % of control

## CC(C)(C)OC(=O)NC(CSC(c1ccccc1)(c1ccccc1)c1ccccc1)C(=O)NCC(=O)O (centres undefined)
endpoint: mean survival time, dose: 75.0 mg/kg/injection, schedule: Q01DX001 (ip), vehicle: saline
  T/C: 96 % of control

## O=C(CCN1CCCCC1)c1ccccc1
endpoint: mean survival time, dose: 5.0 mg/kg/injection, schedule: Q01DX009 (ip), vehicle: saline
  T/C: 115 % of control
endpoint: mean survival time, dose: 10.0 mg/kg/injection, schedule: Q01DX009 (ip), vehicle: saline
  T/C: 114 % of control
endpoint: mean survival time, dose: 20.0 mg/kg/injection, schedule: Q01DX009 (ip), vehicle: saline
  T/C: 102 % of control

## O=C(O)c1ccccc1S(=O)(=O)c1ccccc1
[1]
  T/C: 93 % of control
[2]
  T/C: 88 % of control
[3]
  T/C: 95 % of control

## Cc1cccc(Oc2ccc(C(F)(F)F)cc2[N+](=O)[O-])c1
[4]
  T/C: 98 % of control
[5]
  T/C: 90 % of control
[6]
  T/C: 91 % of control

## NNC(=O)C1C2CCCCC21 (centres undefined)
endpoint: mean survival time, dose: 25.0 mg/kg/injection, schedule: Q01DX009 (ip), vehicle: saline with Tween-80
  T/C: 94 % of control
endpoint: mean survival time, dose: 50.0 mg/kg/injection, schedule: Q01DX009 (ip), vehicle: saline with Tween-80
  T/C: 97 % of control
endpoint: mean survival time, dose: 100.0 mg/kg/injection, schedule: Q01DX009 (ip), vehicle: saline with Tween-80
  T/C: 97 % of control

## COC1OC(CO)C(O)C(NC(=O)N(C)N=O)C1O (centres undefined)
endpoint: mean survival time, dose: 12.5 mg/kg/injection, schedule: Q01DX009 (ip), vehicle: saline
  T/C: 111 % of control
endpoint: mean survival time, dose: 25.0 mg/kg/injection, schedule: Q01DX009 (ip), vehicle: saline
  T/C: 114 % of control
endpoint: mean survival time, dose: 100.0 mg/kg/injection, schedule: Q01DX009 (ip), vehicle: saline
  T/C: 151 % of control
endpoint: mean survival time, dose: 200.0 mg/kg/injection, schedule: Q01DX009 (ip), vehicle: saline
  T/C: 157 % of control and 197 % of control
endpoint: mean survival time, dose: 400.0 mg/kg/injection, schedule: Q01DX009 (ip), vehicle: saline
  T/C: 95 % of control
endpoint: median survival time, dose: 25.0 mg/kg/injection, schedule: Q01DX009 (ip), vehicle: saline
  T/C: 121 % of control
endpoint: median survival time, dose: 100.0 mg/kg/injection, schedule: Q01DX009 (ip), vehicle: saline
  T/C: 159 % of control and 160 % of control
endpoint: median survival time, dose: 144.0 mg/kg/injection, schedule: Q01DX005 (ip), vehicle: saline
  T/C: 158 % of control
endpoint: median survival time, dose: 200.0 mg/kg/injection, schedule: Q01DX009 (ip), vehicle: saline
  T/C: 172 % of control and 209 % of control
endpoint: median survival time, dose: 240.0 mg/kg/injection, schedule: Q01DX005 (ip), vehicle: saline
  T/C: 170 % of control and 172 % of control
endpoint: median survival time, dose: 400.0 mg/kg/injection, schedule: Q01DX005 (ip), vehicle: saline
  T/C: 175 % of control and 225 % of control
endpoint: median survival time, dose: 400.0 mg/kg/injection, schedule: Q01DX009 (ip), vehicle: saline
  T/C: 222 % of control and 236 % of control
endpoint: median survival time, dose: 666.66 mg/kg/injection, schedule: Q01DX005 (ip), vehicle: saline
  T/C: 233 % of control
endpoint: median survival time, dose: 1111.11 mg/kg/injection, schedule: Q01DX005 (ip), vehicle: saline
  T/C: 92 % of control

## CC(=O)OC1(C)C=C/C(=N\S(=O)(=O)c2ccc(C)cc2)c2ccccc21 (centres undefined)
[1]
  T/C: 95 % of control
[2]
  T/C: 97 % of control
[3]
  T/C: 95 % of control

## Cc1ccc(-c2cc(C(=O)O)c3cc(F)ccc3n2)cc1
[1]
  T/C: 101 % of control
[2]
  T/C: 95 % of control
[3]
  T/C: 100 % of control

## S=c1nc[nH]c2nc[nH]c12.[W]
endpoint: median survival time, dose: 60.0 mg/kg/injection, schedule: Q01DX009 (ip), vehicle: water
  T/C: 151 % of control (2×) and 169 % of control
endpoint: median survival time, dose: 60.0 mg/kg/injection, schedule: Q## X009 (ip), vehicle: water
  T/C: 169 % of control
endpoint: median survival time, dose: 80.0 mg/kg/injection, schedule: Q01DX009 (ip), vehicle: water
  T/C: 164 % of control and 167 % of control (2×)
endpoint: median survival time, dose: 80.0 mg/kg/injection, schedule: Q## X009 (ip), vehicle: water
  T/C: 164 % of control
endpoint: median survival time, dose: 100.0 mg/kg/injection, schedule: Q01DX009 (ip), vehicle: water
  T/C: 154 % of control
endpoint: median survival time, dose: 100.0 mg/kg/injection, schedule: Q01DX009 (other), vehicle: water
  T/C: 154 % of control
endpoint: median survival time, dose: 120.0 mg/kg/injection, schedule: Q01DX009 (ip), vehicle: water
  T/C: 158 % of control (2×) and 164 % of control
endpoint: median survival time, dose: 120.0 mg/kg/injection, schedule: Q01DX009 (other), vehicle: water
  T/C: 164 % of control
endpoint: median survival time, dose: 140.0 mg/kg/injection, schedule: Q01DX009 (ip), vehicle: water
  T/C: 163 % of control
endpoint: median survival time, dose: 140.0 mg/kg/injection, schedule: Q## X009 (ip), vehicle: water
  T/C: 163 % of control
endpoint: median survival time, dose: 160.0 mg/kg/injection, schedule: Q01DX009 (ip), vehicle: water
  T/C: 164 % of control
endpoint: median survival time, dose: 160.0 mg/kg/injection, schedule: Q01DX009 (other), vehicle: water
  T/C: 164 % of control

## CCOC(=O)/C(Br)=C/SCCN
endpoint: mean survival time, dose: 100.0 mg/kg/injection, schedule: Q01DX001 (ip), vehicle: saline
  T/C: 111 % of control
endpoint: mean survival time, dose: 200.0 mg/kg/injection, schedule: Q01DX001 (ip), vehicle: saline
  T/C: 105 % of control
endpoint: mean survival time, dose: 400.0 mg/kg/injection, schedule: Q01DX001 (ip), vehicle: saline
  T/C: 100 % of control

## CCOC(=O)CCC(NC(=O)c1cccc(N(C)C=O)c1)C(=O)OCC (centres undefined)
[4]
  T/C: 110 % of control
[1]
  T/C: 100 % of control
[5]
  T/C: 110 % of control
[2]
  T/C: 100 % of control
[6]
  T/C: 113 % of control
[3]
  T/C: 98 % of control

## O=c1oc(/C=C/c2ccccc2)nc2cc(Cl)ccc12
[1]
  T/C: 94 % of control
[2]
  T/C: 92 % of control
[3]
  T/C: 97 % of control

## [Br][OsH].[C-]#[O+].c1ccc([PH+](c2ccccc2)c2ccccc2)cc1.c1ccc([PH+](c2ccccc2)c2ccccc2)cc1.c1ccc([PH+](c2ccccc2)c2ccccc2)cc1
endpoint: mean survival time, dose: 100.0 mg/kg/injection, schedule: Q04DX002 (ip), vehicle: saline with Tween-80
  T/C: 91 % of control
endpoint: mean survival time, dose: 200.0 mg/kg/injection, schedule: Q04DX002 (ip), vehicle: saline with Tween-80
  T/C: 87 % of control
endpoint: mean survival time, dose: 400.0 mg/kg/injection, schedule: Q04DX002 (ip), vehicle: saline with Tween-80
  T/C: 87 % of control
